According to patent US7498349B2, “Biaryl compounds having anti-infective activity” (Genesoft Pharmaceuticals, Inc., priority 2002, dated 2009):

Legend:
[1] = system: C. albicans ATCC 38247; experiment: MIC, antifungal assay; type: cell-based, Candida albicans; settings: C. albicans ATCC 38247
From the text: In vitro biological activity data were collected for a variety of microorganisms, including Bacillus cereus (ATCC 11778), Staphylococcus aureus (ATCC 33591; ATCC 27660, a methicillin resistant strain (MRSA); ATCC 13709, a methicillin sensitive strain (MSSA)), Escherichia coli (ATCC 25922), Enterococcus faecalis (ATCC 29212), Streptococcus pneumoniae (ATCC 49619; ATCC 51422, a penicillin resistant strain (PRSP)), Enterococcus faecium (ATCC 51559, a vancomycin resistant strain (VRE)), and Staphylococcus epidermidis (ATCC 12228). Additionally, antifungal activity data were collected for Candida albicans (ATCC 38247).
The minimal inhibition concentration (MIC) of these compounds was determined using the National Committee for Clinical Laboratory Standards (NCCLS) broth microdilution assay in microtiter plates, as set forth in: (1) the guidelines of the National Committee for Clinical Laboratory Standards (NCCLS) Document M7-A4 (NCCLS, 1997); (2) the guidelines of the National Committee for Clinical Laboratory Standards (NCCLS) Document M11-A4 (NCCLS, 1997); and (3) the guidelines and reference method of the National Committee for Clinical Laboratory Standards (NCCLS) Document M27 -T (NCCLS, 1995). For antifungal assays, the method recommended in Murray, PR., 1995 Manual of Clinical Microbiology (ASM Press, Washington, D.C.), was employed.

[2] = system: S. aureus ATCC 27660; experiment: MIC, NCCLS broth microdilution assay; type: cell-based, Staphylococcus aureus; settings: S. aureus ATCC 27660, methicillin resistant strain (MRSA)
From the text: (§1) In vitro biological activity data were collected for a variety of microorganisms, including Bacillus cereus (ATCC 11778), Staphylococcus aureus (ATCC 33591; ATCC 27660, a methicillin resistant strain (MRSA); ATCC 13709, a methicillin sensitive strain (MSSA)), Escherichia coli (ATCC 25922), Enterococcus faecalis (ATCC 29212), Streptococcus pneumoniae (ATCC 49619; ATCC 51422, a penicillin resistant strain (PRSP)), Enterococcus faecium (ATCC 51559, a vancomycin resistant strain (VRE)), and Staphylococcus epidermidis (ATCC 12228).
(§2) The minimal inhibition concentration (MIC) of these compounds was determined using the National Committee for Clinical Laboratory Standards (NCCLS) broth microdilution assay in microtiter plates, as set forth in: (1) the guidelines of the National Committee for Clinical Laboratory Standards (NCCLS) Document M7-A4 (NCCLS, 1997); (2) the guidelines of the National Committee for Clinical Laboratory Standards (NCCLS) Document M11-A4 (NCCLS, 1997); and (3) the guidelines and reference method of the National Committee for Clinical Laboratory Standards (NCCLS) Document M27 -T (NCCLS, 1995).

[3] = system: S. pneumoniae ATCC 49619; experiment: MIC, NCCLS broth microdilution assay; type: cell-based, Streptococcus pneumoniae; settings: S. pneumoniae ATCC 49619
[4] = system: S. aureus ATCC 13709; experiment: MIC, NCCLS broth microdilution assay; type: cell-based, Staphylococcus aureus; settings: S. aureus ATCC 13709, methicillin sensitive strain (MSSA)
From the text: as §1, §2

[5] = system: B. cereus ATCC 11778; experiment: MIC, NCCLS broth microdilution assay; type: cell-based, Bacillus cereus; settings: B. cereus ATCC 11778
[6] = system: E. faecalis ATCC 29212; experiment: MIC, NCCLS broth microdilution assay; type: cell-based, Enterococcus faecalis; settings: E. faecalis ATCC 29212
[7] = system: E. coli ATCC 25922; experiment: MIC, NCCLS broth microdilution assay; type: cell-based, Escherichia coli; settings: E. coli ATCC 25922
[8] = system: S. aureus ATCC 33591; experiment: MIC, NCCLS broth microdilution assay; type: cell-based, Staphylococcus aureus; settings: S. aureus ATCC 33591
From the text: as §1, §2

Row | SMILES | Minimum Inhibitory Concentration (MIC) [1] | Minimum Inhibitory Concentration (MIC) [2] | Minimum Inhibitory Concentration (MIC) [3] | Minimum Inhibitory Concentration (MIC) [4] | Minimum Inhibitory Concentration (MIC) [5] | Minimum Inhibitory Concentration (MIC) [6] | Minimum Inhibitory Concentration (MIC) [7] | Minimum Inhibitory Concentration (MIC) [8]
1 | CN(CCCN)CCCNc1snc(C(=O)Nc2ccc(-c3cc4ccccc4s3)nc2)c1Cl [Compound A-71] | ++ (4 < MIC < 12) | +++ (MIC ≦ 4) | + (12 ≦ MIC ≦ 32) | +++ (MIC ≦ 4) | +++ (MIC ≦ 4) | +++ (MIC ≦ 4) | +++ (MIC ≦ 4) | +++ (MIC ≦ 4)
2 | CN(C)CCCNc1snc(C(=O)Nc2ccc(-c3cc4ccccc4s3)nc2)c1Cl [Compound A-67] | +++ (MIC ≦ 4) | +++ (MIC ≦ 4) | >32 µg/mL | +++ (MIC ≦ 4) | +++ (MIC ≦ 4) | +++ (MIC ≦ 4) | >32 µg/mL | +++ (MIC ≦ 4)
3 | Cc1cc(NC(=O)c2cccnc2NCCN2CCNCC2)ccc1-c1cc2ccccc2o1 [Compound A-28] | + (12 ≦ MIC ≦ 32) | ++ (4 < MIC < 12) | + (12 ≦ MIC ≦ 32) | ++ (4 < MIC < 12) | + (12 ≦ MIC ≦ 32) | ++ (4 < MIC < 12) | >32 µg/mL | ++ (4 < MIC < 12)
4 | Cc1cc(NC(=O)c2cccnc2NCCN2CCCCC2)ccc1-c1cc2ccccc2o1 [Compound A-27] | ++ (4 < MIC < 12) | +++ (MIC ≦ 4) | + (12 ≦ MIC ≦ 32) | +++ (MIC ≦ 4) | ++ (4 < MIC < 12) | +++ (MIC ≦ 4) | >32 µg/mL | +++ (MIC ≦ 4)
5 | O=C(Nc1ccc(-c2cc3ccccc3o2)cc1)c1ccc(Cl)cc1NCCN1CCNCC1 [Compound A-26] | >32 µg/mL | ++ (4 < MIC < 12) | + (12 ≦ MIC ≦ 32) | +++ (MIC ≦ 4) | + (12 ≦ MIC ≦ 32) | ++ (4 < MIC < 12) | >32 µg/mL | ++ (4 < MIC < 12)
6 | NCCNc1ncccc1C(=O)Nc1ccc(-c2cc3ccccc3o2)nc1 [Compound A-40] | + (12 ≦ MIC ≦ 32) | ++ (4 < MIC < 12) | >32 µg/mL | ++ (4 < MIC < 12) | + (12 ≦ MIC ≦ 32) | ++ (4 < MIC < 12) | + (12 ≦ MIC ≦ 32) | + (12 ≦ MIC ≦ 32)
7 | NCCOCCOCCNc1cc(Cl)ccc1C(=O)Nc1ccc(-c2cc3ccccc3o2)cc1 [Compound A-24] | >32 µg/mL | + (12 ≦ MIC ≦ 32) | >32 µg/mL | + (12 ≦ MIC ≦ 32) | >32 µg/mL | + (12 ≦ MIC ≦ 32) | >32 µg/mL | + (12 ≦ MIC ≦ 32)
8 | NCCNc1snc(C(=O)Nc2ccc(-c3cc4ccccc4o3)nc2)c1Cl [Compound A-38] | + (12 ≦ MIC ≦ 32) | +++ (MIC ≦ 4) | >32 µg/mL | +++ (MIC ≦ 4) | +++ (MIC ≦ 4) | +++ (MIC ≦ 4) | >32 µg/mL | +++ (MIC ≦ 4)
9 | O=C(Nc1ccc(-c2cc3ccccc3s2)nc1)c1nsc(NCCN2CCCCC2)c1Cl [Compound A-69] | >32 µg/mL | >32 µg/mL | >32 µg/mL | >32 µg/mL | >32 µg/mL | >32 µg/mL | >32 µg/mL | >32 µg/mL
10 | O=C(Nc1ccc(-c2cc3ccccc3s2)nc1)c1nsc(NCCN2CCNCC2)c1Cl [Compound A-70] | +++ (MIC ≦ 4) | +++ (MIC ≦ 4) | >32 µg/mL | +++ (MIC ≦ 4) | >32 µg/mL | +++ (MIC ≦ 4) | >32 µg/mL | +++ (MIC ≦ 4)
11 | CN(C)CCCNc1snc(C(=O)Nc2ccc(-c3cc4ccccc4o3)nc2)c1Cl [Compound A-36] | ++ (4 < MIC < 12) | + (12 ≦ MIC ≦ 32) | + (12 ≦ MIC ≦ 32) | +++ (MIC ≦ 4) | ++ (4 < MIC < 12) | ++ (4 < MIC < 12) | >32 µg/mL | ++ (4 < MIC < 12)
12 | O=C(Nc1ccc(-c2cc3ccccc3s2)nc1)c1cccnc1NCCN1CCNCC1 [Compound A-73] | >32 µg/mL | >32 µg/mL | >32 µg/mL | >32 µg/mL | >32 µg/mL | >32 µg/mL | >32 µg/mL | >32 µg/mL
13 | Cc1cc(NC(=O)c2cccnc2NCCCN(C)C)ccc1-c1cc2ccccc2o1 [Compound A-30] | + (12 ≦ MIC ≦ 32) | +++ (MIC ≦ 4) | + (12 ≦ MIC ≦ 32) | +++ (MIC ≦ 4) | ++ (4 < MIC < 12) | +++ (MIC ≦ 4) | >32 µg/mL | +++ (MIC ≦ 4)
14 | CN(C)CCCNc1snc(C(=O)Nc2ccc(-c3cc4ccccc4[nH]3)cc2)c1Cl [Compound A-57] | +++ (MIC ≦ 4) | ++ (4 < MIC < 12) | >32 µg/mL | ++ (4 < MIC < 12) | + (12 ≦ MIC ≦ 32) | ++ (4 < MIC < 12) | >32 µg/mL | + (12 ≦ MIC ≦ 32)
